Reference: BigSolDB 2.1

Cc1ccc(C(=O)O)cc1
solubility (mole fraction)
Details	in acetic acid	in methanol
283.15 K	0.043	0.02
288.15 K	0.048	0.021
293.15 K	0.053	0.023
298.15 K	0.059	0.027
303.15 K	0.064	0.029
308.15 K	0.07	0.033
313.15 K	0.077	0.038
318.15 K	0.085	0.041
323.15 K	0.095	0.047
328.15 K	0.103	0.054
333.15 K	0.113	0.061
